The values that follow come from US20060063932A1, “Aminoalkylpyrrolidine serotonin receptor ligands and compositions, their pharmaceutical uses, and methods for their synthesis” (priority 2000, published 2006).

Where two headings read alike, the source gives them in different places. Bounds are passed on as bounds.

For assay [1], the target named is T1, human 5-HT6 (h5-HT6) receptors (Homo sapiens, UniProt P50406).
T1 construct: purchased Receptor Biology, Inc. (Beltsville, Md.); host or cells: HEK-293 cells
The assay can be described thus: Competition radioligand binding, h5-HT6 ([3H]LSD). The settings on record: membranes of HEK-293 cells, 1 hr RT.

Assay [2] addresses T2, human 5-HT7B (h5-HT7b) receptors (Homo sapiens, UniProt P34969).
T2 construct: expressed in transfected cells
Put plainly: Competition radioligand binding, h5-HT7b ([3H]5-CT). The following applies: membranes of HEK 293 cells, 2 hr 37° C., read-out: Ki (nM) 5-HT7.

Assay [3] has as its target T3, human 5-HT1a receptors (Homo sapiens, UniProt P08908).
T3 construct: expressed in transfected cells; host or cells: CHO K1 cells
T3 sequence (P08908 1-422): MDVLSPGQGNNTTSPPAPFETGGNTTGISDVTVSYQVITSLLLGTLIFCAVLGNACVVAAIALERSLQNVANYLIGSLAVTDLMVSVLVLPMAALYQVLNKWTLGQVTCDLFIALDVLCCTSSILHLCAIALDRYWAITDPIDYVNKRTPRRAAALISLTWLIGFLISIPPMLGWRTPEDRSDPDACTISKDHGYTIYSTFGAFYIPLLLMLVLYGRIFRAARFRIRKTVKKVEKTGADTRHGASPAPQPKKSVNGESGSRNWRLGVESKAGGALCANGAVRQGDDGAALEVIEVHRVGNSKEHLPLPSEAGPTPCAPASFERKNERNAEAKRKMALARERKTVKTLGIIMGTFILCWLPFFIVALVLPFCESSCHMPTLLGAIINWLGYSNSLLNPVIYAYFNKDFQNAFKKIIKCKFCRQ
Put plainly: Competition radioligand binding, h5-HT1a ([3H]5-CT). The following applies: membranes of CHO K1 cells, 1 hr RT.

Assay [4] addresses human D2S dopamine (hD2S-DA) receptors (Homo sapiens, UniProt P14416). The assay can be described thus: Competition radioligand binding, hD2s DA ([3H]Spiperone).
Description: (§1) Cell pellets were homogenized in approximately 50 mL of homogenization buffer (buffer A) containing: 50 mM Tris (pH 7.4), 2 mM EGTA, 0.32 M sucrose, 10 μM PMSF, 1 μg/mL leupeptin, 5 μg/mL Pepstatin A, and 5 μg/mL aprotinin using an UltraTurax homogenizer (Tekmar Company, Cincinnati, Ohio) at 80% maximum setting three times for 10 sec. Cell pellets were centrifuged at 4° C. at 1,500×g for 10 min in a Beckman GS-6R centrifuge. Pellets were resuspended in buffer A, homogenized and centrifuged as described above. Pooled supernatants were transferred to centrifuge bottles and centrifuged at 4° C. at 20,000×g for 30 min in a Beckman J2-HS centrifuge. Cell pellets were resuspended in buffer A and were centrifuged at 4° C. at 20,000×g for 30 min. Cell pellets were resuspended in buffer A and stored at −70° C. in aliquots of 2.5 mg/mL total membrane protein. Total membrane protein was assessed utilizing a BCA kit (Pierce; Rockford, Ill.).
(§2) Filters were washed three times with ice-cold phosphate-buffered saline (PBS) wash buffer containing 50 mM NaPO4 (pH 7.4), 0.9% NaCl, 2 mM MgCl2 and 0.02% NaN3. The filters were then counted using liquid scintillation in a Packard Topcount scintillation counter.
(§3) Data Analysis: Radioligand binding experiments were analyzed with Prism™ (GraphPad, San Diego, Calif.), a computer graphics and statistics program. IC50 values and Hill slopes for compounds were generated by nonlinear regression using Prism™.
For assay [5], the target named is human 5-HT2a receptors (Homo sapiens, UniProt P28223). Put plainly: Competition radioligand binding, h5-HT2a ([3H]Ketanserin).
Chain of human 5-HT2a receptors (P28223 whole entry): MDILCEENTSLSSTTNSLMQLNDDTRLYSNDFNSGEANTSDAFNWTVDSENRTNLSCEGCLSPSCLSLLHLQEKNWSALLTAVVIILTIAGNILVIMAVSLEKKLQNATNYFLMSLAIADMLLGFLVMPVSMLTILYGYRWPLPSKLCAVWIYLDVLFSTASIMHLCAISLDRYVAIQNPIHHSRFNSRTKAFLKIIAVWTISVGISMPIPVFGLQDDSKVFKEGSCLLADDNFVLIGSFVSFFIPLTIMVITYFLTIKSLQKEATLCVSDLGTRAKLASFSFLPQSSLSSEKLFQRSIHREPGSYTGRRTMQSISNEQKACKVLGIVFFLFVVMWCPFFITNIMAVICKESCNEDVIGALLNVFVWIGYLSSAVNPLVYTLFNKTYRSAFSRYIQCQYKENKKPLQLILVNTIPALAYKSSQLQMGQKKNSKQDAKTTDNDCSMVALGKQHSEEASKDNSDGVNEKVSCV
Description: The 5-HT receptor binding properties of the compounds are identified by competitive radioligand binding assays wherein membranes prepared from transfected cells expressing the 5-HT receptor subtype of interest. “Binding constants” refers herein to Ki values measured by inhibition of the binding of radiolabelled ligands that are selective for the 5-HT receptor type being studied.
as §1, §2, §3

T2 sequence (P34969 1-432 limits assumed): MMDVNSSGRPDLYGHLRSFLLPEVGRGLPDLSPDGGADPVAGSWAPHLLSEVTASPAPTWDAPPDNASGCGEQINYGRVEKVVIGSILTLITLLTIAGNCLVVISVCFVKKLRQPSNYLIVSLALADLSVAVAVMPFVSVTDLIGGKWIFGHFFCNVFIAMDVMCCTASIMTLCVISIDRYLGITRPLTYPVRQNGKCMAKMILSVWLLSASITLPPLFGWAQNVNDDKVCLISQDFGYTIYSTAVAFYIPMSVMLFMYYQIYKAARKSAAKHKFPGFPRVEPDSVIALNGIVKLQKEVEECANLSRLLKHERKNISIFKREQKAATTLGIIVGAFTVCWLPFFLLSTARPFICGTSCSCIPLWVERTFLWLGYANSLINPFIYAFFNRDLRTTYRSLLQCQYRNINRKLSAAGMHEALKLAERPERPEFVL
Chain of human D2S dopamine (hD2S-DA) receptors (P14416 1-414 isoform P14416-2): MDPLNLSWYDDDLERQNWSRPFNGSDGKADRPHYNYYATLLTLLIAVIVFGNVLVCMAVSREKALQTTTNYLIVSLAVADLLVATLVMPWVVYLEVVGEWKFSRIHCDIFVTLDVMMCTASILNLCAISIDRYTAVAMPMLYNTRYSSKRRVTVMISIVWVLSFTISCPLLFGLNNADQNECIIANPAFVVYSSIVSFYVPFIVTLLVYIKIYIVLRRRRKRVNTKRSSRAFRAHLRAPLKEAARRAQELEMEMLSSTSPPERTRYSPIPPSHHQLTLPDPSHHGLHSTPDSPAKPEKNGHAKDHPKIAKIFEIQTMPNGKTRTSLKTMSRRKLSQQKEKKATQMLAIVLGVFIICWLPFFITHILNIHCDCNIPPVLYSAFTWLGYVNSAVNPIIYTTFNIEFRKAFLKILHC
T1 sequence (P50406 whole entry): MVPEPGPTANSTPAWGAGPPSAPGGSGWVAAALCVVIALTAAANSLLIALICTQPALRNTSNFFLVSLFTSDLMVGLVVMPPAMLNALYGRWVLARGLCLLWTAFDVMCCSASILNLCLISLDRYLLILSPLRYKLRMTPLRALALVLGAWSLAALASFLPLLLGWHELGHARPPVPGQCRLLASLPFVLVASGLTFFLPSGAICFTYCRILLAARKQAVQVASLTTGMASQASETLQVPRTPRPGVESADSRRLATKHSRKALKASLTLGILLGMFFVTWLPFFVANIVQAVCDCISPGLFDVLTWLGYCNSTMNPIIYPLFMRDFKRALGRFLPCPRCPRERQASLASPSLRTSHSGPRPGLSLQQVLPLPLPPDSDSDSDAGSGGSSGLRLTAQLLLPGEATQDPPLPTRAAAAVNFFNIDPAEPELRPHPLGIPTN

A word on the Ki: it is a dissociation constant, usually derived from enzyme kinetics or from competition with a known ligand. In the case of `Cc1cccc(CN(CCC2CCCN2C)Cc2ccccc2)c1` (stereo not shown) [Example 30], the inhibition constant Ki is 53 nM in assay [1]; 20 nM in assay [2]; greater than 4000 nM in assay [3]; 660 nM in assay [4]; 60 nM in assay [5].

Regarding `CN1CCC[C@H]1CCN(Cc1ccc(Cl)cc1)Cc1ccc2c(c1)Cc1ccccc1-2` [Example 45], the inhibition constant (Ki) was 38 nM in assay [1]; 12 nM in assay [2]; greater than 4000 nM in assay [3]; 250 nM in assay [4]; 27 nM in assay [5].

With `CN1CCC[C@H]1CCN(Cc1cccc(O)c1)Cc1ccc2ccccc2c1` [Example 34], the Ki in assay [1] was 315 nM; in assay [2], 8.6 nM; in assay [3], 825 nM; in assay [4], 1750 nM; in assay [5] it was 61 nM.

`CCN1CCC[C@H]1CCN(Cc1ccc(C)cc1)Cc1ccc(C)cc1` [Example 54, (S)-Di-(4-methylbenzyl)aminoethyl-N-ethylpyrrolidine]: the Ki in assay [1] worked out at 300 nM; in assay [2], 63 nM; in assay [3], 610 nM; in assay [4] (read-out: Ki (nM) D2, membranes of A9 L cells, [3H]Spiperone, 2 hr RT), 380 nM; in assay [5] (read-out: Ki (nM) 5-HT2A, membranes of CHO K1 cells, [3H]Ketanserin, 1 hr 37° C.), 56 nM.

On to `CSc1ccc(CN(CC[C@@H]2CCCN2C)Cc2ccc(Cl)cc2)cc1` [Example 40], for which the Ki in assay [1] is 132 nM; in assay [2] it was 6.5 nM; in assay [3], greater than 4000 nM; in assay [4], 1110 nM; in assay [5] it was 23 nM.

As to `CN1CCC[C@H]1CCN(Cc1ccc(O)cc1)Cc1ccc(Cl)cc1` [Example 49], the Ki was 177 nM in assay [1]; 1.9 nM in assay [2]; greater than 4000 nM in assay [3]; 1310 nM in assay [4]; 148 nM in assay [5].

For the compound `Cc1ccc(CN(CC[C@H]2CCCN2C)Cc2ccc(C)cc2)cc1` [Example 6], the Ki in assay [1] came out at 53 nM; in assay [2] it was 80 nM; in assay [3], 1780 nM; in assay [4], 200 nM; in assay [5], 29 nM.

Take `COc1cc(CN(CC[C@@H]2CCCN2C)Cc2ccc(Cl)cc2)ccc1O` [Example 50]: the Ki was 280 nM in assay [1]; 3.2 nM in assay [2]; greater than 4000 nM in assay [3]; greater than 2500 nM in assay [4]; 180 nM in assay [5].
